A short description of data set [1]: Aqueous solubility at pH 2. In kind it is physicochemical.
Data set [2] in a line: […] bioavailability in sc dosed rat. In kind it is ADME, organism-based. Particulars: in vivo, subcutaneous.
Data set [3] is described as follows: Aqueous solubility at pH 7. Type of data set: physicochemical.
The nature of data set [4]: […] bioavailability in ip dosed rat. Type of data set: ADME, organism-based. The conditions noted are these: in vivo, intraperitoneal.
Data set [5] is described as follows: Metabolic stability in human liver microsomes after 1 hr. In kind it is ADME, Microsome. The conditions noted are these: read-out: Stability.

Where only a bound is given, the exact number is not on record here.

As a reminder, the solubility is the dissolved amount per volume that the medium holds. The term bioavailability denotes dose-corrected exposure relative to a reference, in per cent. Lower therefore signals poor availability. As for `C[N+](C)(Cc1ccc(NC(=O)c2ccc(Cl)c(Cl)c2)cc1)C1CCOCC1` [JNJ-17166864 CATION], the solubility in data set [1] and in data set [3] was > 7000 µg/mL each time. The bioavailability in data set [2] was 100%; in data set [4], 74%. For the same compound, in data set [5], the remaining at 1 h came out at 100%.

The values are drawn from ChEMBL document CHEMBL1140669, “Potent and selective CC-chemokine receptor-2 (CCR2) antagonists as a potential treatment for asthma” (Bioorg Med Chem Lett, 2007).
